Data as given in patent publication US5104859A, “Continuous administration of adenosine to reduce pulmonary vascular resistance” (priority 1990, dated 1992).
Where two headings read alike, the source gives them in different places.

Key:
[1] = Clinical observations during and after cardiopulmonary bypass
Method: During cardiopulmonary bypass (CPB), mean arterial blood pressure (MABP) above 70 mmHg was treated with the vasodilator sodium nitroprusside (SNP), except in the final phase or rewarming. CPB was performed with SARN roller pump and a Shiley oxygenator (100A) primed with 2000 ml crystalloid solution (75 mg heparin). The perfusion rate was kept at approximately […] body surface. Moderate hypothermia (25° C.) was induced. Cardioplegia was obtained with Ringer's solution (with added potassium up to 20 mM/1). Heparin (3 mg/kg) was administered as a bolus injection before cannulation. The heparin effect was controlled by measurements of activated clotting time. (Hemocron® Int. Technidyne Corp, USA). […] At the termination of CPB, the heparin effect was antagonized with protamine (c. 1.3 mg/mg heparin). ACT was checked 10-20 min after the protamine injection. ACT values 120 sec were considered satisfactory.
Platelet count (Linson 431 A cell counter) and hematocrit were determined in arterial samples before anesthesia, after thoracotomy, during CPB at 10, 20, 40, 60, 80 and 100 min, 30 min after CPB and on the postoperative day. Platelet counts were expressed in percentage of preanesthesia levels and were corrected for hemodilution. MABP was monitored continuously via a catheter introduced in the radial artery. All patients received hypertonic mannitol (1-1.5 g/kg) during CPB and urine production was calculated as ml/.min of CPB (Table VI).
Postoperative bleeding was measured as the blood loss from the tube drainage from the end of operation until the postoperative morning.
In six cases the plasma adenosine levels were determined by high performance liquid chromatography (HPLC) (Fredholm and Sollevi, J. Physiol. (London), 313: 351-67 (1981) in arterial and in venous (venous lines to the oxygenator) blood. The adenosine metabolites inosine, hypoxanthine and uric acid were also determined by HPLC. The samples were collected as previously described (Sollevi, Acta. Physiol. Scand., 121: 165-72 (1984) at the intervals of 10, 20, 40 and 80 minutes during CPB and 20 minutes after CPB.
Statistical significance (controls v. adenosine group) was determinted with Student's t-test for unpaired data. For significance within the groups the Wilcoxon Rank Sum test was used. p […] 0.05 was regarded as significant.

[2] = Solubility of adenosine; type: physicochemical; conditions: for solubility: read-out: solubility limit

Question: Which results are given for `Nc1ncnc2c1ncn2[C@@H]1O[C@H](CO)[C@@H](O)[C@H]1O` [adenosine]?
Answer: systemic vasodilation at chosen infusion rate ([1]; 100 ug/kg/min, highest such rate in pilot cases): did not induce systemic vasodilation; Preoperative urine production ([1]; 0.1 mg per kg per min, with range in parentheses): 4.1 (1.1-9.5) ml/min. CPB; urine production during CPB ([1]; 500 ml/h in controls, p<0.01): 250 mL/h; MABP during CPB vs placebo ([1]; human, in vivo): did not differ significantly; postoperative blood loss vs control ([1]; human, in vivo): did not differ; MABP after CPB ([1]; no intergroup difference at end of operation): slightly lower MABP; patients with transient creatinine elevation ([1]; one control patient): two; patients requiring vasodilator treatment ([1]; placebo: seven required nitroprusside): No patient; transient elevation of serum creatinine above normal range ([1]; two postoperative days): 10-20%; solubility limit ([2]; b421 prints mg/ml): 5.5-6 milligrams per milliliter; solubility ([2]; b421 prints mg/ml): 5500 to 6000 µg/mL; solubility [2]: ~20 mM
